In patent publication US8877206B2, “Stimulation of an immune response by cationic lipids” (PDS Biotechnology Corporation, priority 2007, dated 2014):
Where two headings read alike, the source gives them in different places.

Tests used:
DC2.4 dendritic cells = settings: cited from earlier work; for Potency to stimulate expression of CD 80 vs lipids with longer or saturated acyl chains: ethyl phosphocholine head group lipids, FIG. 14B; for Expression of CD80/CD86: FIG. 14A, disclosed in U.S. Pat. No. 7,303,881
BMDC [1] = test: CCL2 release from BMDC (ELISA); type: cell-based, C57BL/6 mice
BMDC [2] = test: RT-PCR of chemokine mRNA in BMDC; type: cell-based, mouse; settings: 50 μM liposomes for 16 h; FIG. 15B
Method: Total RNA was isolated from BMDC by Rneasy Mini Kit from Qiagen according to the manufacturer's instruction. Following digestion with Dnase for 30 min at 37° C., the total RNA concentration was determined by spectrophotometry. Primer pairs for mouse CCL2, CCL3, CCL4 and β-actin (forward primer 5′-[…]-3′ [SEQ. ID. NO. 3] and reverse primer 5′-[…]-3′ [SEQ. ID. NO. 4] for CCL2; forward primer 5′-[…]-3′ [SEQ. ID. NO. 5] and reverse primer 5′-[…]-3′ [SEQ. ID. NO. 6] for CCL3; forward primer 5′-[…]-3′ [SEQ. ID. NO. 7] and reverse primer 5′-[…]-3′ [SEQ. ID. NO. 8] and reverse primer 5′-[…]-3′ [SEQ. ID. NO. 9] for β-actin [Wang H., et al., Potential involvement of monocyte chemoattractant protein (MCP)-1/CCL2 in IL-4-mediated tumor immunity through inducing dendritic cell migration into the draining lymph nodes, Int Immunopharmacol 3:627-42, (2003)] were synthesized by IDT technology. RT-PCR was performed using the one-step RT-PCR kit (commercially available from Invitrogen of Carlsbad, Calif.) where reverse transcription and DNA amplification occur in the same reaction. Briefly, 1 μg of total RNA was used as a template in a reaction that included the appropriate primers in the presence of both reverse transcriptase and Taq polymerase. The mixture was incubated at 45° C. for 30 min and cycled 25 times at 94° C. for 30 s, 55° C. for 30 s, and 72° C. for 2 min. […]

[3] = test system: murine bone marrow derived dendritic cells (BMDC); settings: Vangesseri et al 2006; cited from earlier work
ERK = test: Western blot of ERK and p38 activation in BMDC; type: cell-based, mouse; settings: for Effect on DOTAP-induced ERK phosphorylation: FIG. 19C
Method: (§1) BMDC cell lysate was collected after different treatments and total cellular protein was resolved on polyacrylamide/SDS gels and then transferred to polyvinylidene difluoride membranes. The membranes were blocked with 5% nonfat milk in Tris-buffered saline for 1 h and then incubated from 1 h to overnight with primary antibody. After washing the membranes with Tris-buffered saline three times, the membranes were incubated horseradish peroxidase conjugated secondary antibody for 1 h. The peroxidase activity associated with the protein bands was detected by enhanced chemiluminescence using ECL plus (Amershan International) followed by autoradiography.

[4] = Western blot of ERK and p38 activation in BMDC; type: cell-based, mouse
Method: as §1

DC2.4 cells = test: Affymetrix microarray of DC2.4 cells treated with DOTAP liposomes; type: cell-based, mouse
[5] = test system: bone marrow derived dendritic cells (BMDC); type: cell-based, mouse
TC-1 tumor = test: TC-1 HPV-positive tumor growth in treated mice; type: in vivo, C57BL/6 mice; settings: 100 nmole dose, without E7 peptide
[6] = test system: draining lymph node cells; test: Uptake of NBD-DOTAP and dendritic cell activation/migration to the draining lymph node; type: in vivo, mice
Method: Naïve mice (n=4-6) were injected with PBS control (FIGS. 7 A, C and E) or DOTAP/E7 containing 100 nmols total lipid with 0.5% 1-Oleoyl-2-[6-[(7-nitro-2-1,3-benzoxadiazol-4-yl)amino]hexanoyl]-3-trimethylammonium propane] (“NBD-DOTAP”) (FIGS. 7 B, D, and F). At 4 h after the injection, draining lymph node cells were prepared and stained with appropriate antibodies to surface markers. The co-expression of NBD and CD11c (FIGS. 7 A and B) or CD86 (FIGS. 7 C and D) were analyzed within total lymph node cells whereas the co-expression of NBD and CD8 (FIGS. 7 E and F) were gated and analyzed within CD3^+ population. The numbers represented the percentages of cells in the quadrants. Draining lymph node cells were harvested and analyzed by flow cytometry at different time points post injection. The numbers of CD11c^+ cells among total lymph node cells increased by more than 2.5-fold compared to untreated mice 4 h after NBD-DOTAP/E7 injection (FIGS. 7 A and B). […] NBD uptake by other cell types such as T lymphocytes was also investigated by costaining with anti-CD3, CD4 and CD8 antibodies.

[7] = BMDC stimulated 20 h at 37° C., supernatant ELISA, FIG. 1

For `CCCCCCCCCCCC(=O)OC[C@H](COP(=O)(OCC)OCC[N+](C)(C)C)OC(=O)CCCCCCCCCCC` (stereo partly drawn) [DLEPC, 1,2-dilauroyl-sn-glycero-3-ethylphosphocholine], the “Potency to stimulate expression of CD 80 vs lipids with longer or saturated acyl chains” value (DC2.4 dendritic cells) is given as “more potent”.
In the case of `CCCCCCCCCCCCCC(=O)OCC(COP(=O)(OCC)OCC[N+](C)(C)C)OC(=O)CCCCCCCCCCCCC` (stereo not drawn) [DMEPC, 1,2-dimyristoyl-sn-glycero-3-ethylphosphocholine], the “Potency to stimulate expression of CD 80 vs lipids with longer or saturated acyl chains” value (DC2.4 dendritic cells) is listed as “more potent”.
In the case of `CCCCCCCCCCCCCCOC(=O)CC[C@H](NC(=O)[C@@H](N)CCCCN)C(=O)OCCCCCCCCCCCCCC` [DMKD, O,O′-dimyristyl-N-lysyl-glutamate], the “Expression of CD80/CD86” value (DC2.4 dendritic cells) is given as “strongly stimulated”.
In the case of `CCCCCCCCCCCCCCOC(=O)C[C@H](NC(=O)[C@@H](N)CCCCN)C(=O)OCCCCCCCCCCCCCC` [DMKE, O,O′-dimyristyl-N-lysyl aspartate], the “Expression of CD80/CD86” value (DC2.4 dendritic cells) is given as “strongly stimulated”.
In the case of `CCCCCCCC/C=C\CCCCCCCC(=O)OCC(CN(C)C)OC(=O)CCCCCCC/C=C\CCCCCCCC` (stereo not drawn) [DODAP, dioleoyl dimethylaminopropane], the “MCP-1/CCL2 release from BMDC by liposomes” value (from here on “MCP-1/CCL2 release from BMDC”) (BMDC [1]) was “did not induce the activity”.
In the case of `CCCCCCCC/C=C\CCCCCCCC(=O)OC[C@@H](COP(=O)(OCC)OCC[N+](C)(C)C)OC(=O)CCCCCCC/C=C\CCCCCCCC` (stereo partly drawn) [DOEPC, 1,2-dioleoyl-sn-glycero-3-ethylphosphocholine], the “Potency to stimulate expression of CD 80 vs lipids with longer or saturated acyl chains” value (DC2.4 dendritic cells) is listed as “more potent”, the “CCL2 and CCL4 mRNA (RT-PCR)” value (BMDC [2]) is listed as “upregulated” and the “Expression of co-stimulatory molecules CD80 and CD86” value [3] is listed as “activated for the expression of the co-stimulatory molecules”. The “MCP-1/CCL2 release from BMDC” value (BMDC [1]) was “induced the MCP-1/CCL2 release”.
For `CCCCCCCC/C=C\CCCCCCCC(=O)OC[C@H](CO)OC(=O)CCCCCCC/C=C\CCCCCCCC` [DOG], the “MCP-1/CCL2 release from BMDC” value (BMDC [1]; FIG. 16) was “did not”.
With `CCCCCCCC/C=C\CCCCCCCC(=O)OC[C@H](COP(=O)([O-])OCC[N+](C)(C)C)OC(=O)CCCCCCC/C=C\CCCCCCCC` [DOPC, dioleoyl phosphatidylcholine] the “MCP-1/CCL2 release from BMDC” value (BMDC [1]) was “did not”.
In the case of `CCCCCCCC/C=C\CCCCCCCC(=O)OC[C@H](COP(=O)(O)OCC(O)CO)OC(=O)CCCCCCC/C=C\CCCCCCCC` (stereo partly drawn) [DOPG], the “MCP-1/CCL2 release from BMDC” value (BMDC [1]; FIG. 16) was “did not”.
For `CCCCCCCC/C=C\CCCCCCCC(=O)OC[C@H](COP(=O)(O)OC[C@H](N)C(=O)O)OC(=O)CCCCCCC/C=C\CCCCCCCC` [DOPS], the “MCP-1/CCL2 release from BMDC” value (BMDC [1]) was “did not”.
With `CCCCCCCC/C=C\CCCCCCCC(=O)OCC(C[N+](C)(C)C)OC(=O)CCCCCCC/C=C\CCCCCCCC` (stereo not drawn) [DOTAP, 1,2-dioleoyl-3-trimethylammonium propane] the “Time phospho-ERK stayed at a high level” value (ERK) was “at least 40 min”, the “Time to ERK phosphorylation” value (ERK) was no more than 10 min and the “Phosphorylation of IκB and subsequent degradation” value [4] was “no phosphorylation of IκB”. For the same compound, the p38 activation [4] was “slightly activated”, the “CD11c mRNA” value (DC2.4 cells; 50 μM DOTAP) was “induced” and the “IL-1 receptor antagonist (IL1RA) mRNA” value (DC2.4 cells; 50 μM DOTAP treatment for 16 h) was “increased”. For the same compound, the “IL-1 β mRNA” value (DC2.4 cells; 50 μM DOTAP treatment for 16 h) was “decreased”, the “mRNA of chemokines CCL2, CCL3, CCL4” value (DC2.4 cells; 50 μM DOTAP, FIG. 15A) was “induced overexpression of several chemokines” and the “CCL2 and CCL4 mRNA (RT-PCR)” value (BMDC [2]) was “upregulated”. The IL-10 induction [5] was “no induction of IL-10”, the IL-12 production [5, 7] was “production increased in response to DOTAP concentration” and the TNF-α production [5, 7] was “did not induce significant levels”. For the same compound, the TC-1 tumor growth (TC-1 tumor) was “did not show significant inhibition of tumor growth”, the “Expression of co-stimulatory molecules CD80 and CD86” value [3] was “activated for the expression of the co-stimulatory molecules” and the CCL2 release (BMDC [1]) was “induced significant amounts of CCL2”. The “Concentration at which maximum CCL2 induction was reached” value (BMDC [1]) was 45 to 75 µM and the “MCP-1/CCL2 release from BMDC” value (BMDC [1]) was “induced the MCP-1/CCL2 release”.
In the case of `CCCCCCCC/C=C\CCCCCCCC(=O)OCC(C[N+](C)(C)C)OC(=O)CCCCCNc1ccc([N+](=O)[O-])c2nonc12` (stereo not drawn) [NBD-DOTAP], the “NBD uptake by CD3+ cells” value ([6]; FIG. 7E, F) was “no NBD uptake” and the “Share taken up by dendritic cells” value ([6]; soon after immunization) was roughly 80%.
With `CC(C)(C)n1nc(-c2ccc(Cl)cc2)c2c(N)ncnc21` [PP2, reference compound] the “Effect on DOTAP-induced ERK phosphorylation” value (ERK) was “no effect” and the “Effect on DOTAP-induced CCL2 production” value (BMDC [1]; pre-incubated 20 min, then 75 μM DOTAP 24 h, PD 20 μM, SB 10 μM, U 10 μM, PTx 200 ng/mL, PP2 10 μM, Wort 200 nM, GF 200 nM, FIG. 18) was “no inhibitory effect”.
With GF109203X [reference compound] the “Effect on DOTAP-induced ERK phosphorylation” value (ERK) was “no effect”.
In the case of pertussis toxin [reference compound], the “Effect on DOTAP-induced ERK phosphorylation” value (ERK) was “slight inhibitory effect”.
